From patent publication US12317891B2, “Protein product capable of immobilizing target and being cleared as required” (SHAANXI NORMAL UNIVERSITY, priority 2020, dated 2025)

Tested on: snails
Assay: Insect control performance verification: cabbage leaves fed to snails
Type: in vivo
Conditions: leaves sprayed with 10 mg/mL suspension; 10 snails per group
Source text: Cabbage leaves each at a size of 5 cm×5 cm were divided into four groups with four cabbage leaves in each group. […] The four groups of leaves were respectively administered to four groups of snails with 10 snails in each group. The consumption rate by the snails for the untreated cabbage leaf group was almost 100%. The consumption rate by the snails for the cabbage leaves simply sprayed with the imidacloprid suspension was about 30%. […] The consumption rate by the snails for the cabbage leaves that were first sprayed with the suspension of the protein product of the present disclosure and then treated with the Vc aqueous solution or the fruit and vegetable detergent was increased to 80%.

Q: O=[N+]([O-])NC1=NCCN1Cc1ccc(Cl)nc1 [imidacloprid] was tested. Which “consumption rate of cabbage leaves by the snails” value did it give?
A: about 30%
